Data as given in patent US20080119439A1, “Treatment and prevention of intestinal fibrosis” (Bayer Schering Pharma Aktiengesellschaft, priority 2006, published 2008).

Columns and labels:
[1] = test system: chronic model of colon inflammation (TNBS-induced chronic colitis); test: Study 1: chronic TNBS colitis, lipoxin A4 analog given daily together with TNBS; assay type: in vivo, BALB/c mice
Procedure: (§1) A model of chronic inflammation induced by 7 week administration of 2,4,6-trinitrobenzenesulfonic acid (TNBS) in escalating manner was used in these studies. This model results in inflammation-driven fibrosis that associates with significant increase in intestinal content of collagen.
(§2) The induction of chronic colitis was performed according the protocol proposed by Lawrance et al, Gastroenterology (2003) 125:1750-1761. Six- to eight-week-old female mice of the BALB/c strain were obtained from Charles River (Breeding Laboratories, Monza, Italy).
In a first in vivo experiment, BALB/c mice of the control group (n=7) received weekly 0.1 mL of saline solution by intracolonic injections. Mice of the TNBS group (n=15) were treated for 8 weeks with escalating doses (0.5 to 1.25 mg, with a 0.25 mg increase every two weeks) of TNBS in 30% ethanol by intracolonic injections at weekly intervals. Mice of TNBS+lipoxin A4 analog group (n=15) received the same weekly TNBS administration as the TNBS-only group plus 1 mg/kg of the lipoxin A4 analog daily by intragastric administration. Mice were examined weekly for weight loss, diarrhea and rectal bleeding. Two days after the last administration of TNBS, mice were killed and colons were removed and examined. The macroscopic appearance was analyzed considering the presence of indurations, edema, thickness and evidence of mucosal hemorrhage.
Neutrophil infiltration in the colon was monitored by measuring MPO activity using a spectrophotometric assay with trimethylbenzidine (TMB) as a substrate according to a previously published method. Activity is expressed as U per mg protein.
For histologic examination, sections of the proximal, middle and distal colon from each animal were fixed in 10% formalin, embedded in paraffin, sectioned, and stained with haematoxylin and eosin (H&E) or Sirius Red. For the latter, sections were incubated for 30 minutes in 0.1% Sirius Red F3B containing saturated picric acid and 0.1% fast green. After rising twice with distilled water, sections were briefly dehydrated with 70% ethanol.
Images from colon sections were acquired with a BX60 microscope (Olympus Co., Rome, Italy), digitalized using a SPOT-2 camera (Diagnostic Instruments Inc., Sterling Heights, Mich.) with a resolution of 1315×1033 pixels and analyzed using a computerized image analysis system (Image Acquisition System Ver.005, Delta Sistemi, Rome, Italy).
Sections from the colon of each animal were examined in a blinded fashion. The degree of the inflammation and fibrosis was scored accordingly with an established method (Lawrance et al., supra; Neurath et al., J. Exp. Med. (1995) 182:1281-1290). Briefly, inflammation was scored as absent, mild, moderate or severe depending on the density and extent of inflammatory infiltrates, loss of goblet cells, and bowel wall thickening. Also, the fibrosis was scored as absent, mild, moderate or severe on the basis of the density and extent of the Sirius red-positive connective tissue staining, compared with the water-control mice.
Quantification of the expression of mouse gene in colon tissues and intestinal fibroblasts was performed by quantitative real-time polymerase chain reaction (RT-PCR) (Heid C A 1996), using sense and antisense primers indicated in Table 1. All PCR primers were designed using PRIMER3-OUTPUT software using published sequence data from the NCBI database. Total RNA was isolated (TRIzol reagent, Invitrogen srl, Milan, Italy) from specimens taken from distal colons and intestinal fibroblasts. One microgram of purified RNA was treated with Dnasel for 15 minutes at room temperature, followed by incubation at 95° C. for 5 minutes in the presence of 2.5 mmol/L EDTA. The RNA was reverse-transcribed with Superscript III (Invitrogen srl, Milan, Italy) in 20 μL reaction volume using random primers. […]

[2] = test system: chronic model of colon inflammation (established TNBS colitis); test: Study 2: established TNBS colitis, lipoxin A4 analog dosed orally after the third week of TNBS; assay type: in vivo, BALB/c mice; conditions: 1 mg/kg orally, starting on week 3 after TNBS administration
Procedure: as §1, §2
To test the influence of lipoxin analogs in the inflammatory and fibrotic response in animals with established colitis, in a second in vivo study lipoxin A4 analog (1 mg/kg) was dosed orally starting after the third week of administration of TNBS (same protocol as described above). Mice were examined weekly for weight loss, diarrhea and rectal bleeding. Two days after the last administration of TNBS, mice were killed and colons were removed and examined. The macroscopic appearance was analyzed considering the presence of indurations, edema, thickness and evidence of mucosal hemorrhage.
Neutrophil infiltration in the colon was monitored by measuring MPO activity using a spectrophotometric assay with trimethylbenzidine (TMB) as a substrate according to a previously published method. Activity is expressed as U per mg protein. […]

[3] = 1 mg/kg daily intragastric, seven weeks, quantitative RT-PCR

With O=C([O-])COC[C@H](O)[C@H](O)/C=C/C=C/C#C/C=C/[C@H](O)COc1ccc(F)cc1.[Na+] [lipoxin A4 analog, sodium 2-((2S,3R,4E,6E,10E,12S)-13-(4-fluorophenoxy)-2,3,12-trihydroxytrideca-4,6,10-trien-8-ynyloxy)acetate] the “colon fibrosis development, morphometric analysis of Sirius red-stained colon” value ([1]; 1 mg/kg daily intragastric, administered for seven weeks, vs TNBS alone) was “significantly attenuated”, the “colon expression of TGFβ mRNA (marker of colon fibrosis)” value [1, 3] was “significantly attenuated” and the “colon expression of fibronectin mRNA (marker of colon fibrosis)” value [1, 3] was “significantly attenuated”. For the same compound, the “colon expression of α-SMA mRNA (marker of colon fibrosis)” value [1, 3] was “significantly attenuated”, the “colon expression of αI collagen mRNA (marker of colon fibrosis)” value [1, 3] was “significantly attenuated” and the colon inflammation ([1]; administered orally) was “attenuated”. For the same compound, the “TGBβ protein in colon” value ([1]; in comparison to mice administered TNBS alone) was “reduced” and the “efficacy when administered in a therapeutic manner (inflammatory and fibrotic response)” value [2] was “effective”.
